Source: patent US20170022260A9 (Sanofi, priority 2013, published 2017)
Values after ≈ are worked out from the molar mass of the structure shown.

Assays:
physchem = type: physicochemical
Experimental: Prior to the testing of solubility and stability of a peptide batch, its content was determined Therefore, two parameters were investigated, its purity (HPLC-UV) and the amount of salt load of the batch (ion chromatography).
. Therefore, solutions from solid samples were prepared in different buffer systems with a concentration of 1.0 mg/mL compound based on the previously determined content. HPLC-UV was performed after 2 h of gentle agitation from the supernatant, which was obtained by 20 min of centrifugation at 4000 rpm.
This analysis also served as starting point (t0) for the stability testing.
As HPLC/UPLC method, method D or E has been used.

[1] = tested on: Female diabetic dbdb-mice; test: Glucose lowering in female diabetic dbdb-mice; type: in vivo; conditions: 100 μg/kg s.c.
Experimental: Female diabetic dbdb-mice (BKS.Cg-+Leprdb/+Leprdb/OlaHsd) 10 weeks of age at study start were used. Mice were habituated to feeding and housing conditions for at least 2 weeks. 7 days prior to study start, HbA1c were determined to allocate mice to groups, aiming to spread low, medium and high HbA1c-values and in consequence the group-means (n=8), as equally as possible. On the day of study, food was removed, directly before sampling for baseline glucose assessment (t=0 min) Immediately afterwards, compounds or vehicle (phosphor buffered saline, PBS) were administered subcutaneously, 100 μg/kg, 10 ml/kg. Afterwards, blood samples were drawn by tail tip incision at 15, 30, 60, 90, 120, 150, 180, 240, 360, 480 min and 24 h. Food was re-offered after the 480 min-sampling.
Data were analysed by 2-W-ANOVA on repeated measurements, followed by Dunnett's test as post-hoc assessment, level of significance p<0.05.

Row | solubility at 2 h (physchem; pH 4.5, solubility pH 4.5) [µg/mL] | solubility at 2 h (physchem; pH 7.4, solubility pH 7.4) [µg/mL] | Molecule | reduction of glucose compared to vehicle control, statistical significance ([1]; female db/db-mice, p<0.05, 2-way-ANOVA, Dunnett's post-hoc test) | maximal effect, glucose reduction ([1]; non-fasted female db/db-mice, change from baseline (baseline on average 28 mmol/l)) [mmol/1]
1 | 934 (≈ 223 µM) | > 1000 | CC[C@H](C)[C@H](NC(=O)[C@H](CC(C)C)NC(=O)[C@H](Cc1c[nH]c2ccccc12)NC(=O)[C@H](CCC(=O)O)NC(=O)[C@@H](NC(=O)[C@H](Cc1ccccc1)NC(=O)[C@H](CCC(=O)O)NC(=O)[C@H](CCCCN)NC(=O)[C@H](C)NC(=O)[C@H](CCCNC(=N)N)NC(=O)[C@H](CCC(N)=O)NC(=O)[C@H](CCC(=O)O)NC(=O)[C@H](CC(=O)O)NC(=O)[C@H](CC(C)C)NC(=O)[C@H](CCC(N)=O)NC(=O)[C@H](CCCCN)NC(=O)[C@H](CO)NC(=O)[C@H](CC(C)C)NC(=O)[C@H](CC(=O)O)NC(=O)[C@H](CO)NC(=O)[C@@H](NC(=O)[C@H](Cc1ccccc1)NC(=O)[C@@H](NC(=O)CNC(=O)[C@H](CCC(N)=O)NC(=O)[C@H](CO)NC(=O)[C@@H](N)Cc1c[nH]cn1)[C@@H](C)O)[C@@H](C)O)[C@@H](C)CC)C(=O)N[C@@H](C)C(=O)NCC(=O)NCC(=O)N1CCC[C@H]1C(=O)N[C@H](C(=O)N[C@@H](CO)C(=O)NCC(=O)N[C@@H](C)C(=O)N1CCC[C@H]1C(=O)N1CCC[C@H]1C(=O)N1CCC[C@H]1C(=O)N[C@@H](CO)C(N)=O)C(C)C [SEQ ID NO: 6, HSQGTFTSDLSKQLDEQRAKEFIEWLIAGGPVSGAPPPS-NH2] |  | 
2 |  |  | H-Aib-HGTFTSDLSKQLDEQRAKDFIEWLIAGGPSSGAPPPS-NH2 [SEQ ID NO: 10] | statistical significant reduction of glucose compared to vehicle control from t=60 min until 240 min | ~12
